Experimental data reported in patent publication US8278289B2, “Boroxine composition for removal of skin changes” (priority 2006, dated 2012).

Tests used:
[1] = tested on: mouse carcinoma cells SCC VII; test: Cytotoxic effect on mouse carcinoma cells SCC VII (crystal violet viability); type: cell-based; settings: viable cells by absorbance at 590 nm after 24 hours with substance; XS100 = dosage 0.5 μg; variation max 10%
Procedure: (§1) An investigation of anti-tumor activity of the boroxine compound (XS) was conducted on cell lines of mouse fibro-sarcoma FsaR and mouse carcinoma SCC VII.
(§2) Cell lines (mouse fibro-sarcoma FsaR and mouse carcinoma SCC VII) were incubated at optimal conditions for 24 hours, followed by addition of tested substances in a dosage of 0.5 μg (XS100) and combinations with Li (lithium) and SNP (sodium-nitroprusside) Li (lithium) is blocker of GSK-3 (glycogen-synthetase-kinase), an enzyme involved in pathways that modulate cell's death. SNP (sodium-nitroprusside) is modulator of pro-apoptotic protein p53 (tumor suppressor protein).
(§3) Cells were additionally incubated for 24 hours in the presence of the substances. Later, cells were fixed by glutaraldehyde and stained in 0.1% crystal violet. Stain attached to the viable cells was extracted by 0.2% Triton-X 100 and extract absorbance was determined at 590 nm. Value of absorbance is proportional with viable cells number.
(§4) The following results have been obtained (the observed variation of the observed values are a maximum of 10%).

[2] = tested on: mouse fibro-sarcoma FsaR; test: Cytotoxic effect on mouse fibro-sarcoma FsaR (crystal violet viability); type: cell-based; settings: viable cells by absorbance at 590 nm after 24 hours with substance; XS100 = dosage 0.5 μg; variation max 10%
Procedure: as §1, §2, §3, §4

K2[B3O3F4OH] [XS100]
% of control [1]: 42 % of control
% of control [2]: 21 % of control
